The subject of data set [1] is Boll Weevils. Briefly: Competitive field test with released weevils, four trap array. Format: in vivo, Anthonomus grandis. The note with it: 1.0 mg of the compound. The source says:
The second series of experiments involved an array of four traps. […] The two treatments being tested simultaneously in this competitive arrangement were placed alternately in the traps, i.e., the two traps baited with the same treatment were located diagonally from each other. Odorants diluted in hexane were released from glass capillaries placed in small vials in a container in each trap. […] Traps were then immediately baited. In each test, traps were checked and insects were removed at 1530 hrs and 1700 hrs on the day of release, and before 0900 hrs the next day (the time at which the test was terminated) in order to remove those insects which might have responded prior to darkness on the day of release.

The test system of data set [2] is Single Olfactory Cells Responsive to Volatiles Emanating from a Crushed Cotton Square. Briefly: Single-cell electrophysiology: action potentials from single olfactory cells. The conditions noted are these: volatiles emanating from 1 μg of odorant; cell responsive to crushed cotton square. The format is cell-based, Anthonomus grandis. An excerpt:
Single-cell recording techniques are described in detail elswhere [Dickens, Mitt. Schweiz. Entomol. Ges. 52: 203 (1979); Dickens et al., J. Chem. Ecol. 10: 583 (1984)]. In brief, microelectrodes used for recordings were constructed from 50.8 μm diameter tungsten wire electrolytically sharpened to a tip of 1-2 μm. The recording electrode was positioned under optical control (150-200 X) with a Leitz high-power micromanipulator near either the base of one of the three sensory bands encircling the club, or the base of an individual sensillum just distal to each sensory band region. The ground electrode was inserted in either the rostrum or distal end of the scape. Action potentials were amplified and conditioned by a Grass P-15 preamplifier and Tektronix 5A22N amplifier prior to visualization on a Tektronix 5223 digitizing oscilloscope. The signal then passed through a Teac R51-D data recorder for recording on cassette tapes prior to visualization on a Tektronix 5111 analog oscilloscope. Data were photographed from the analog oscilloscope with a Tektronix C-5C oscilloscope camera. Trains of action potentials were counted visually.
Upon obtaining a single cell preparation, odorous stimuli were presented every 3 min. […] The first two stimuli tested were volatiles emanating from 1 μg of grandlure, followed by volatiles emanating from a crushed cotton square. These two stimuli served to determine whether the cell was activated by the attractive pheromone of the boll weevil and/or volatiles emanating from its food source.

The test system of data set [3] is Boll Weevils. Briefly: Competitive field test with released weevils, triangular trap array. Format: in vivo, Anthonomus grandis. The conditions noted are these: for Mean Trap Capture: three replicates; for activity alone in competition with the other treatments: triangular array, 100 mg alone. On the procedure: Two series of field tests were performed involving released boll weevils, in which grandlure was placed in competition with grandlure + the synergist. In the first series of experiments, a triangular array of traps was used. One trap was placed at each corner of a 20 m equilateral triangle (total of three traps). The three treatments released in this triangular array of traps were: 1) grandlure 3 mg; 2) grandlure 3 mg+synergist 100 mg; and 3) synergist 100 mg. The three synergists tested in these experiments were: trans-2-hexen-1-ol, 1-hexanol, and cis-3-hexen-1-ol. Cigarette filters were used to release the experimental odorants. One hundred insets (50 males and 50 females) were released along a line 20 m from each side of the triangle (300 insects total) at ca. 1000 hrs prior to baiting of the traps at 1200 hrs. Traps were check and insects were removed at 1400 hrs, 1600 hrs, and 1800 hrs, the times at which the test was terminated.

In another data set the test system is Scolytus multistriatus. Briefly: Field test with bark beetles, 4-wk, Orono, Me. Format: in vivo. The conditions noted are these: for captures of bark beetles in traps when released with multilure, relative to the pheromone alone: 10 mg each; for Mean % Trap Capture: hexanal 10 mg, 1-hexanol 10 mg, multilure, alone or combined, 4-wk test period. On the procedure: Mean % trap captures were calculated from competitive field tests during a 4-wk test period on campus of the University of Maine, Orono, Me. Total number of S. multistriatus captured was 423. Multilure consisted of α-multistriatin, methyl heptanol, and cubebene as obtained commercially from Dewill Corp., Elmhurst, Ill. Both 1-hexanol and hexanal were released from cigarette filters after dilution in the […] described [McKibben, supra]. Mean weekly trap captures were compared by Duncan's multiple range test [Duncan, Biometrics 11: 1-42 (1955)].

For a further data set, the system named is female C. capitata. Briefly: Wind tunnel assay with female Mediterranean fruit flies. The note with it: laboratory flight tunnel. Format: in vivo, Ceratitis capitata. On the procedure:
Flies were assayed in a rectangular glass wind tunnel (90 cm×90 cm×280 cm; flow rate=20 cm/sec) using laboratory-reared 5- to 7-day-old female C. capitata. The odor from 100 male C. capitata (30-50% calling) was obtained, and split through “Teflon” tubing to a secondary container containing the green leaf odor [either 100 μL of a 0.05% mixture in paraffin oil of trans-2-hexen-1-ol, 1-hexanol, cis-3-hexen-1-ol, trans-2-hexenal, and hexanal at a ratio of 158:100:63:24:11 (=glv, green leaf volatiles); or 100 μL of a 10% solution in silicon oil of trans-2-hexenal alone]. The odors were released into the wind tunnel via “Teflon” tubing to […] yellow plastic spheres [McInnis, J. Econ. Entomol. (in press)] with multiple holes to allow odors to emanate. Fifty flies were released 200 cm downwind from the source spheres, and both the number of flies on the spheres at a given time, and total number of landings by the flies were recorded during a 30-min test period. The test with the green leaf volatile blend was replicated five times; the test with trans-2-hexenal was replicated six times.

Data set [4] is described as follows: Gas chromatographic analyses of the aldehyde released in the field. The note with it: field conditions in which it was released.
[5] abbreviates: grandlure 3 mg vs 1-hexanol 100 mg vs both.
Setting [6] is: grandlure 3 mg vs cis-3-hexen-1-ol 100 mg vs both.

`CCCCCCO` [1-hexanol]: the “synergism with grandlure (0.8 mg) in competition with grandlure (0.8 mg) alone” value (from here on “synergism with grandlure (0.8 mg)”) with Boll Weevils [1] is reported as “effective synergists”. Besides, in data set [2], the “Response in impulses/initial 500 msec, Cell #1” value is given as 11 impulses/initial 500 msec; the “Response in impulses/initial 500 msec, Cell #2” value is 30 impulses/initial 500 msec; the “Response in impulses/initial 500 msec, Cell #3” value is listed as 42 impulses/initial 500 msec. Also, in the data set with Boll Weevils [3] (setting [5]), the “% Total” value worked out at 0% and the “Mean Trap Capture” value amounted to 0 A. In addition, in the data set on Boll Weevils [3], the “activity alone in competition with the other treatments” value is “relatively inactive”. In addition, in the data set with Scolytus multistriatus, the “captures of bark beetles in traps when released with multilure, relative to the pheromone alone” value is given as “increased” and the “Mean % Trap Capture” value came to 0a %.

`CC1=CC[C@H]2C[C@@H]1C2(C)C` [(-)-α-pinene, (−)-α-pinene]: in data set [2], the “Response in impulses/initial 500 msec, Cell #1” value is on record as 4 impulses/initial 500 msec; the “Response in impulses/initial 500 msec, Cell #2” value came out at 0 impulses/initial 500 msec; the “Response in impulses/initial 500 msec, Cell #3” value is 1 impulses/initial 500 msec; the “Response in impulses/initial 500 msec, Cell #4” value was found to be 7 impulses/initial 500 msec.

As to `O=Cc1ccccc1` [benzaldehyde], in data set [2], the “Response in impulses/initial 500 msec, Cell #1” value worked out at 3 impulses/initial 500 msec; the “Response in impulses/initial 500 msec, Cell #2” value was determined as 0 impulses/initial 500 msec; the “Response in impulses/initial 500 msec, Cell #3” value was 1 impulses/initial 500 msec; the “Response in impulses/initial 500 msec, Cell #4” value is recorded as 0 impulses/initial 500 msec.

For the molecule `CCC/C=C\CO` [cis-2-hexen-1-ol], the “synergism with grandlure (0.8 mg)” value with Boll Weevils [1] was “no synergism”.

As for `CC/C=C\CCO` [cis-3-hexen-1-ol], the “synergism with grandlure (0.8 mg)” value in the data set on Boll Weevils [1] is “effective synergists”. Further, in the data set with Boll Weevils [3] (setting [6]), the “% Total” value is given as 0% and the “Mean Trap Capture” value was 0 B. Besides, the “activity alone in competition with the other treatments” value with Boll Weevils [3] is “relatively inactive”.

For `CC(C)=CCC/C(C)=C/CO` [geraniol], in data set [2], the “Response in impulses/initial 500 msec, Cell #1” value was found to be 1 impulses/initial 500 msec; the “Response in impulses/initial 500 msec, Cell #2” value was found to be 3 impulses/initial 500 msec; the “Response in impulses/initial 500 msec, Cell #3” value turned out to be 5 impulses/initial 500 msec; the “Response in impulses/initial 500 msec, Cell #4” value is recorded as 0 impulses/initial 500 msec.

Regarding `CCCCCCC=O` [heptanal], in data set [2], the “Response in impulses/initial 500 msec, Cell #1” value was found to be 1 impulses/initial 500 msec; the “Response in impulses/initial 500 msec, Cell #2” value is given as 0 impulses/initial 500 msec; the “Response in impulses/initial 500 msec, Cell #3” value came out at 0 impulses/initial 500 msec; the “Response in impulses/initial 500 msec, Cell #4” value is given as 16 impulses/initial 500 msec.

`CCCCCC=O` [hexanal]: in data set [2], the “Response in impulses/initial 500 msec, Cell #1” value was 16 impulses/initial 500 msec; the “Response in impulses/initial 500 msec, Cell #2” value is given as 13 impulses/initial 500 msec; the “Response in impulses/initial 500 msec, Cell #4” value worked out at 27 impulses/initial 500 msec. In addition, in the data set on Scolytus multistriatus, the “captures of bark beetles in traps when released with multilure, relative to the pheromone alone” value is recorded as “increased” and the “Mean % Trap Capture” value is recorded as 0.3a %.

Turning to `C=CC(C)(O)CCC=C(C)C` (stereo not shown) [linalool], in data set [2], the “Response in impulses/initial 500 msec, Cell #1” value is given as 3 impulses/initial 500 msec; the “Response in impulses/initial 500 msec, Cell #2” value is on record as 2 impulses/initial 500 msec; the “Response in impulses/initial 500 msec, Cell #3” value is listed as 1 impulses/initial 500 msec; the “Response in impulses/initial 500 msec, Cell #4” value is 11 impulses/initial 500 msec.

For the molecule `C=CC(=C)CCC=C(C)C` [myrcene], in data set [2], the “Response in impulses/initial 500 msec, Cell #1” value came to 2 impulses/initial 500 msec; the “Response in impulses/initial 500 msec, Cell #2” value worked out at 1 impulses/initial 500 msec; the “Response in impulses/initial 500 msec, Cell #3” value worked out at 1 impulses/initial 500 msec; the “Response in impulses/initial 500 msec, Cell #4” value is 3 impulses/initial 500 msec.

On to `CC(C)=CCC/C(C)=C\CO` [nerol], for which, in data set [2], the “Response in impulses/initial 500 msec, Cell #1” value was found to be 3 impulses/initial 500 msec; the “Response in impulses/initial 500 msec, Cell #2” value is 4 impulses/initial 500 msec; the “Response in impulses/initial 500 msec, Cell #3” value came out at 8 impulses/initial 500 msec; the “Response in impulses/initial 500 msec, Cell #4” value came out at 11 impulses/initial 500 msec.

With `CCCCCCCCC=O` [nonanal], in data set [2], the “Response in impulses/initial 500 msec, Cell #1” value was 2 impulses/initial 500 msec; the “Response in impulses/initial 500 msec, Cell #2” value turned out to be 0 impulses/initial 500 msec; the “Response in impulses/initial 500 msec, Cell #3” value is recorded as 0 impulses/initial 500 msec; the “Response in impulses/initial 500 msec, Cell #4” value stood at 4 impulses/initial 500 msec.

With `CCC/C=C/C=O` [trans-2-hexenal], in the data set with female C. capitata, the “response of female flies to male odor plus the green leaf odor relative to male odor alone” value is listed as “enhanced response”. Also, in the data set on Boll Weevils [1], the “synergism with grandlure (0.8 mg)” value is “no significant difference”. Further, the “degradation under field conditions” value in data set [4] was “in part been degraded”. Moreover, in data set [2], the “Response in impulses/initial 500 msec, Cell #1” value is on record as 27 impulses/initial 500 msec; the “Response in impulses/initial 500 msec, Cell #2” value was determined as 24 impulses/initial 500 msec; the “Response in impulses/initial 500 msec, Cell #3” value turned out to be 1 impulses/initial 500 msec; the “Response in impulses/initial 500 msec, Cell #4” value was 38 impulses/initial 500 msec.

For `CC(C)=CCC[C@H](C)[C@@]1(O)CC=C(C)CC1` [β-bisabolol], in data set [2], the “Response in impulses/initial 500 msec, Cell #1” value worked out at 3 impulses/initial 500 msec; the “Response in impulses/initial 500 msec, Cell #2” value was determined as 3 impulses/initial 500 msec; the “Response in impulses/initial 500 msec, Cell #3” value turned out to be 5 impulses/initial 500 msec; the “Response in impulses/initial 500 msec, Cell #4” value was determined as 2 impulses/initial 500 msec.

As to `C=C1CC/C=C(\C)CC[C@@H]2[C@@H]1CC2(C)C` [β-caryophyllene], in data set [2], the “Response in impulses/initial 500 msec, Cell #1” value turned out to be 2 impulses/initial 500 msec; the “Response in impulses/initial 500 msec, Cell #2” value was 2 impulses/initial 500 msec; the “Response in impulses/initial 500 msec, Cell #3” value is given as 0 impulses/initial 500 msec; the “Response in impulses/initial 500 msec, Cell #4” value is 1 impulses/initial 500 msec.

(−)-limonene [(-)-limonene]: in data set [2], the “Response in impulses/initial 500 msec, Cell #1” value was found to be 0 impulses/initial 500 msec; the “Response in impulses/initial 500 msec, Cell #2” value is given as 0 impulses/initial 500 msec; the “Response in impulses/initial 500 msec, Cell #3” value is reported as 2 impulses/initial 500 msec; the “Response in impulses/initial 500 msec, Cell #4” value came out at 1 impulses/initial 500 msec.

In the case of gossonerol, in data set [2], the “Response in impulses/initial 500 msec, Cell #1” value was determined as 3 impulses/initial 500 msec and the “Response in impulses/initial 500 msec, Cell #4” value came out at 12 impulses/initial 500 msec.

Take α-bisabolol: in data set [2], the “Response in impulses/initial 500 msec, Cell #1” value worked out at 3 impulses/initial 500 msec; the “Response in impulses/initial 500 msec, Cell #2” value is given as 12 impulses/initial 500 msec; the “Response in impulses/initial 500 msec, Cell #3” value was found to be 3 impulses/initial 500 msec; the “Response in impulses/initial 500 msec, Cell #4” value is recorded as 2 impulses/initial 500 msec.

These data come from patent publication US6413508B1, “Green leaf volatiles as synergists for insect pheromones” (The United States of America as represented by the …, priority 1988, dated 2002).
